In brackets after ≈: the same amount, converted by molar mass. Where two headings read alike, the source gives them in different places.
Columns and labels:
[1] = system: MCF-7 breast cancer cells; experiment: cytotoxicity assay on MCF-7 breast cancer cells; type: cell-based, human
Experimental: The cytotoxic activity of trans-desoxylaulimalide (12a) was evaluated. An initial cytotoxicity study with desoxylaulimalide (12a) was conducted to compare compound (12a) to taxol and laulimalide for effects on the growth of human MCF-7 breast cancer cells. Cytotoxicity assays on MCF-7 were performed as described in P. Giannakakou et al., J. Biol. Chem., 272, 17118–17125 (1997). Consistent with its activity in a tubulin assembly assay, desoxylaulimalide (12a) was an inhibitor of cell growth. […] Thus, desoxylaulimalide (12a) is about 1/50 as active as laulimalide in the MCF-7 cells. This compares with the 340-fold lower activity in MDA-MB-435 breast cancer cells observed for isolaulimalide (9), which also lacks the epoxide moiety.

KB cell line = details: cited from earlier work
[2] = system: P388, A549, HT29, and MEL28 cell lines; details: range over four cell lines; cited from earlier work
[3] = system: MDA-MB-435 and SK-OV-3 cell lines; details: drug-sensitive cell lines MDA-MB-435 and SK-OV-3; read-out: IC50, inhibition of cell proliferation; cited from earlier work
[4] = system: SKVLB-1 multidrug resistant cell line; details: multidrug resistant cell line SKVLB-1; read-out: IC50 against SKVLB-1; cited from earlier work
[5] = system: P-glycoprotein-mediated MDR cell lines; details: cited from earlier work
tubulin = tubulin assembly assay / microtubule stabilization; type: biochemical
[6] = system: MDA-MB-435 breast cancer cells; details: cited from earlier work
[7] = Homo sapiens, MCF7, read-out: IC50, inhibition of cell growth

With `C=C1C[C@H](C)C[C@@H]2CC=C[C@@H](C/C=C\C(=O)O[C@H]([C@@H](O)/C=C/[C@@H]3CC(C)=CCO3)C[C@@H]3O[C@H]3[C@@H](O)C1)O2` [laulimalide] as the compound, how does the IC50 [1, 7] read?
The IC50 was 7 nM.

What about the “IC50, cytotoxicity against KB cell line” value (KB cell line) of the same compound?
The value was 0.015 µg/mL (≈ 0.0291 µM).

And the “IC50, cytotoxicity against P388, A549, HT29, and MEL28 cell lines” value [2]?
The value was 0.01 to 0.05 µg/mL.

And the IC50 [3]?
Its IC50 is 5 to 12 nM.

What about the IC50 [4] of the same compound?
The IC50 was 1200 nM.

And the “fold more potent than taxol” value [5]?
The value was 100 fold.

For `C=C1C[C@H](C)C[C@@H]2CC=C[C@@H](C/C=C\C(=O)O[C@H]([C@@H](O)/C=C/[C@@H]3CC(C)=CCO3)C/C=C/[C@@H](O)C1)O2` [12a, desoxylaulimalide], which IC50 [1, 7] is on record?
Its IC50 is 360 nM.

And the “activity relative to laulimalide” value ([1]; MCF-7 cells)?
Its value is “about 1/50”.

What about the “effect on the tubulin assembly reaction” value (tubulin) of the same compound?
The value was “stimulates the tubulin assembly reaction”.

And the “potency with respect to microtubule stabilization” value (tubulin; compared with laulimalide (2))?
Its value is “potency similar to laulimalide (2)”.

What does the source list for `C=C1CC(C)C[C@@H]2CC=C[C@@H](C/C=C\C(=O)O[C@@H]3C[C@H](O[C@@H]3/C=C/[C@H]3CC(C)=CCO3)[C@H](O)C(O)C1)O2` (stereo partly drawn) [isolaulimalide]?
IC50 (KB cell line; read-out: IC50 against KB cell line): > 200 nM; IC50 [4]: 2600 nM; fold lower activity (compared with laulimalide) [6]: 340 fold

With `CC(=O)O[C@H]1C(=O)[C@@]2(C)[C@H]([C@H](OC(=O)c3ccccc3)[C@]3(O)C[C@H](OC(=O)[C@H](O)[C@@H](NC(=O)c4ccccc4)c4ccccc4)C(C)=C1C3(C)C)[C@]1(OC(C)=O)CO[C@@H]1C[C@@H]2O` [taxol] as the compound, how does the IC50 ([1]; MCF7, human MCF-7 breast cancer cells, read-out: IC50, inhibition of cell growth) read?
Its IC50 is 2.4 nM.

And the IC50 [3]?
Its IC50 is 1000 to 2000 nM.
